The NIST ThermoML archive (doi:10.1016/j.jct.2010.09.008)

Key:
[1] = 101.33 kPa, Liquid, Vibrating tube method
[2] = relative permittivity at zero frequency (dimensionless); conditions: 101.33 kPa, Liquid, AC method
[3] = relative permittivity at zero frequency (dimensionless); xn = mol fraction of the nth substance listed; conditions: 101.3 kPa, Liquid, AC Method
[4] = xn = mol fraction of the nth substance listed; conditions: 101.3 kPa, Liquid, Vibrating tube method

COCCOC [1,2-dimethoxyethane]
Conditions	mass density, 288.15 K [kg/m3]	mass density, 298.15 K [kg/m3]	mass density, 308.15 K [kg/m3]	relative permittivity at zero frequency, 288.15 K	relative permittivity at zero frequency, 298.15 K	relative permittivity at zero frequency, 308.15 K
[1]	872.05	861.14	850.06	–	–	–
[2]	–	–	–	7.41	7.07	6.75

COCCOC [1,2-dimethoxyethane] + CCCCCCC
Conditions	mass density [kg/m3]	relative permittivity at zero frequency
[3], 288.15 K, x2 = 0.1012	–	6.32
[3], 288.15 K, x2 = 0.2002	–	5.43
[3], 288.15 K, x2 = 0.3003	–	4.69
[3], 288.15 K, x2 = 0.3997	–	4.07
[3], 288.15 K, x2 = 0.5024	–	3.52
[3], 288.15 K, x2 = 0.6016	–	3.07
[3], 288.15 K, x2 = 0.7002	–	2.72
[3], 288.15 K, x2 = 0.7979	–	2.42
[3], 288.15 K, x2 = 0.9022	–	2.15
[3], 288.15 K, x2 = 0.9511	–	2.04
[3], 298.15 K, x2 = 0.1013	–	6.04
[3], 298.15 K, x2 = 0.2013	–	5.2
[3], 298.15 K, x2 = 0.3011	–	4.5
[3], 298.15 K, x2 = 0.3992	–	3.92
[3], 298.15 K, x2 = 0.503	–	3.41
[3], 298.15 K, x2 = 0.6035	–	3
[3], 298.15 K, x2 = 0.7028	–	2.67
[3], 298.15 K, x2 = 0.7982	–	2.38
[3], 298.15 K, x2 = 0.902	–	2.13
[3], 298.15 K, x2 = 0.9497	–	2.03
[3], 308.15 K, x2 = 0.0493	–	6.26
[3], 308.15 K, x2 = 0.1001	–	5.79
[3], 308.15 K, x2 = 0.2005	–	4.99
[3], 308.15 K, x2 = 0.3016	–	4.34
[3], 308.15 K, x2 = 0.399	–	3.8
[3], 308.15 K, x2 = 0.5009	–	3.32
[3], 308.15 K, x2 = 0.603	–	2.93
[3], 308.15 K, x2 = 0.7028	–	2.6
[3], 308.15 K, x2 = 0.802	–	2.33
[3], 308.15 K, x2 = 0.8974	–	2.11
[3], 308.15 K, x2 = 0.9505	–	2.01
[4], 288.15 K, x2 = 0.0495	857.82	–
[4], 288.15 K, x2 = 0.0995	844.28	–
[4], 288.15 K, x2 = 0.2045	818.14	–
[4], 288.15 K, x2 = 0.2979	797.21	–
[4], 288.15 K, x2 = 0.403	775.91	–
[4], 288.15 K, x2 = 0.5042	757.33	–
[4], 288.15 K, x2 = 0.5998	741.27	–
[4], 288.15 K, x2 = 0.7021	725.61	–
[4], 288.15 K, x2 = 0.8053	711.33	–
[4], 288.15 K, x2 = 0.8998	699.44	–
[4], 288.15 K, x2 = 0.9508	693.43	–
[4], 298.15 K, x2 = 0.0503	846.65	–
[4], 298.15 K, x2 = 0.0974	834.02	–
[4], 298.15 K, x2 = 0.2008	808.4	–
[4], 298.15 K, x2 = 0.2994	786.5	–
[4], 298.15 K, x2 = 0.401	766.2	–
[4], 298.15 K, x2 = 0.5026	747.97	–
[4], 298.15 K, x2 = 0.5967	732.41	–
[4], 298.15 K, x2 = 0.6994	716.96	–
[4], 298.15 K, x2 = 0.8019	702.94	–
[4], 298.15 K, x2 = 0.9009	690.67	–
[4], 298.15 K, x2 = 0.9509	684.9	–
[4], 308.15 K, x2 = 0.0496	836.12	–
[4], 308.15 K, x2 = 0.0998	822.77	–
[4], 308.15 K, x2 = 0.2009	798.1	–
[4], 308.15 K, x2 = 0.3035	775.66	–
[4], 308.15 K, x2 = 0.4011	756.35	–
[4], 308.15 K, x2 = 0.5021	738.24	–
[4], 308.15 K, x2 = 0.6	722.36	–
[4], 308.15 K, x2 = 0.7018	707.33	–
[4], 308.15 K, x2 = 0.8036	693.71	–
[4], 308.15 K, x2 = 0.9014	681.82	–
[4], 308.15 K, x2 = 0.9519	676.15	–

COCCOCCOCCOCCOC [2,5,8,11,14-pentaoxapentadecane]
Conditions	mass density, 288.15 K [kg/m3]	mass density, 298.15 K [kg/m3]	mass density, 308.15 K [kg/m3]	relative permittivity at zero frequency, 288.15 K	relative permittivity at zero frequency, 298.15 K	relative permittivity at zero frequency, 308.15 K
[1]	1015.96	1006.68	997.27	–	–	–
[2]	–	–	–	8.04	7.78	7.55

COCCOCCOCCOCCOC [2,5,8,11,14-pentaoxapentadecane] + CCCCCCC
Conditions	mass density, [4] [kg/m3]	relative permittivity at zero frequency, [3]
288.15 K, x2 = 0.0498	–	7.74
288.15 K, x2 = 0.0505	1004.42	–
288.15 K, x2 = 0.0975	993.3	–
288.15 K, x2 = 0.0999	–	7.42
288.15 K, x2 = 0.1982	968.25	–
288.15 K, x2 = 0.2001	–	6.79
288.15 K, x2 = 0.3	941.07	6.15
288.15 K, x2 = 0.3985	–	5.52
288.15 K, x2 = 0.4	912.66	–
288.15 K, x2 = 0.5009	881.97	–
288.15 K, x2 = 0.5076	–	4.82
288.15 K, x2 = 0.6017	848.59	–
288.15 K, x2 = 0.6033	–	4.2
288.15 K, x2 = 0.6931	816.13	–
288.15 K, x2 = 0.7044	–	3.58
288.15 K, x2 = 0.7998	775.06	–
288.15 K, x2 = 0.8028	–	2.99
288.15 K, x2 = 0.8972	734.27	–
288.15 K, x2 = 0.8985	–	2.45
288.15 K, x2 = 0.8994	–	2.45
288.15 K, x2 = 0.9466	712.33	–
288.15 K, x2 = 0.9495	–	2.19
298.15 K, x2 = 0.0496	–	7.49
298.15 K, x2 = 0.0499	995.11	–
298.15 K, x2 = 0.0996	983.28	–
298.15 K, x2 = 0.1016	–	7.19
298.15 K, x2 = 0.1994	–	6.58
298.15 K, x2 = 0.1995	958.5	–
298.15 K, x2 = 0.2961	932.8	–
298.15 K, x2 = 0.299	–	5.97
298.15 K, x2 = 0.4031	902.6	–
298.15 K, x2 = 0.406	–	5.31
298.15 K, x2 = 0.4975	873.81	–
298.15 K, x2 = 0.5037	–	4.7
298.15 K, x2 = 0.6024	–	4.1
298.15 K, x2 = 0.6043	838.65	–
298.15 K, x2 = 0.6975	805.52	–
298.15 K, x2 = 0.7027	–	3.51
298.15 K, x2 = 0.8001	–	2.95
298.15 K, x2 = 0.8006	765.91	–
298.15 K, x2 = 0.8982	725.23	–
298.15 K, x2 = 0.9013	–	2.41
298.15 K, x2 = 0.948	703.4	–
298.15 K, x2 = 0.9499	–	2.16
308.15 K, x2 = 0.0469	986.65	–
308.15 K, x2 = 0.0503	–	7.25
308.15 K, x2 = 0.0979	974.59	–
308.15 K, x2 = 0.1003	–	6.95
308.15 K, x2 = 0.1976	949.94	–
308.15 K, x2 = 0.201	–	6.36
308.15 K, x2 = 0.2944	924.23	–
308.15 K, x2 = 0.2949	–	5.82
308.15 K, x2 = 0.3006	922.61	–
308.15 K, x2 = 0.3924	–	5.24
308.15 K, x2 = 0.404	893.13	–
308.15 K, x2 = 0.4956	865.23	–
308.15 K, x2 = 0.5048	–	4.58
308.15 K, x2 = 0.6018	830.49	–
308.15 K, x2 = 0.6066	–	3.98
308.15 K, x2 = 0.6965	796.89	–
308.15 K, x2 = 0.7117	–	3.38
308.15 K, x2 = 0.7981	758.07	–
308.15 K, x2 = 0.7999	–	2.9
308.15 K, x2 = 0.8986	716.39	–
308.15 K, x2 = 0.8988	–	2.38
308.15 K, x2 = 0.9479	694.69	–
308.15 K, x2 = 0.9491	–	2.14

COCCOCCOCCOC [2,5,8,11-tetraoxadodecane]
Conditions	mass density, 288.15 K [kg/m3]	mass density, 298.15 K [kg/m3]	mass density, 308.15 K [kg/m3]	relative permittivity at zero frequency, 288.15 K	relative permittivity at zero frequency, 298.15 K	relative permittivity at zero frequency, 308.15 K
[1]	990.08	980.58	971.07	–	–	–
[2]	–	–	–	7.89	7.63	7.38
